As a reminder, the IC50 is the midpoint of a concentration-inhibition curve. What is called melting point is the temperature, or range, at which the solid turns liquid.

For 15 molecules, IC50 and melting point results are on record in US7115611B2, “Phenyl derivatives, their manufacture and use as pharmaceutical agents” (Hoffmann-la Roche Inc., priority 2003, dated 2006).

Bounds are passed on as bounds.

One data set concerns the target T1, PPARα (Homo sapiens, UniProt Q07869).
T1 construct: PPARα (aa 167 to 469); made in house; host or cells: E. coli BL21 (pLysS)
T1 sequence (Q07869 167-468 limits assumed): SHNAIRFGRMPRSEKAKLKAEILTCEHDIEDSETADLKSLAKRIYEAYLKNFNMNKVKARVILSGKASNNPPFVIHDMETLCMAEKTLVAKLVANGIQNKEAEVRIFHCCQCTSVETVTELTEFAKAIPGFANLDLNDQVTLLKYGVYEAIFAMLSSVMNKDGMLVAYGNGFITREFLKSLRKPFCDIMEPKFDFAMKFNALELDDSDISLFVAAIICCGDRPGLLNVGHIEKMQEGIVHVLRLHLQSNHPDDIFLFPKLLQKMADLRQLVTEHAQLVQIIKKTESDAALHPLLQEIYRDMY
Nature of the data set: PPARα receptor radioligand binding assay (SPA). Conditions: GST-PPARα-LBD fusion protein on SPA beads. From the text: (§1) Background information on the performed assays can be found in: Nichols J S et al. “Development of a scintillation proximity assay for peroxisome proliferator-activated receptor gamma ligand binding domain”, (1998) Anal. Biochem. 257:112–119.
(§2) Full-length cDNA clones for humans PPARδ and PPARα and mouse PPARγ were obtained by RT-PCR from human adipose and mouse liver cRNA, respectively, cloned into plasmid vectors and verified by DNA sequencing. Bacterial and mammalian expression vectors were constructed to produce glutathione-s-transferase (GST) and Gal4 DNA binding domain proteins fused to the ligand binding domains (LBD) of PPARδ (aa 139 to 442), PPARγ (aa 174 to 476) and PPARα (aa 167 to 469). To accomplish this, the portions of the cloned sequences encoding the LBDs were amplified from the full-length clones by PCR and then subcloned into the plasmid vectors. Final clones were verified by DNA sequence analysis.
(§3) Induction, expression, and purification of GST-LBD fusion proteins were performed in E. coli strain BL21 (pLysS) cells by standard methods (Ref: Current Protocols in Molecular Biology, Wiley Press, edited by Ausubel et al.).
(§4) PPARα receptor binding was assayed in TKE50 (50 mM Tris-HCl, pH 8, 50 mM KCl, 2 mM EDTA, 0.1 mg/ml fatty acid-free BSA and 10 mM DTT). For each 96 well reaction an 140 ng equivalent of GST-PPARα-LBD fusion protein was bound to 10 μg SPA beads (PharmaciaAmersham) in a final volume of 50 μl by shaking. The resulting slurry was incubated for 1 h at RT and centrifuged for 2 min at 1300 g. The supernatant containing unbound protein was removed and the semidry pellet containing the receptor-coated beads was resolved in 50 μl of TKE. […] All binding assays were performed in 96 well plates and the amount of bound ligand measured on a Packard TopCount using OptiPlates (Packard). Nonspecific binding was determined in the presence of 10^−4 M unlabelled compound. […]

A further data set addresses T2, PPARγ (Mus musculus, UniProt P37238).
T2 construct: PPARγ (aa 174 to 476); made in house; host or cells: E. coli BL21 (pLysS)
T2 sequence (P37238 174-475 isoform P37238-2): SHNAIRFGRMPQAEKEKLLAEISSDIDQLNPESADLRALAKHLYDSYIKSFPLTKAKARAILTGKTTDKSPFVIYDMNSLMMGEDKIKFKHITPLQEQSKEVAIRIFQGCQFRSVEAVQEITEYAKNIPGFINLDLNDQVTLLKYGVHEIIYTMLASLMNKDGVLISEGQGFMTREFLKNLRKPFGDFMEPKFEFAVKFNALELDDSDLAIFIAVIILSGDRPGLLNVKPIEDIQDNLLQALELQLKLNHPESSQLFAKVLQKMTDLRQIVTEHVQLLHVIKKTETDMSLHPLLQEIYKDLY
As to the kind of experiment: PPARγ receptor radioligand binding assay (SPA). The following applies: GST-PPARγ-LBD fusion protein on SPA beads.
From the text: as §1, §2, §3
as §4, with “PPARγ receptor” for “PPARα receptor”, “reaction a” for “reaction an”, “of GST-PPARγ-LBD” for “of GST-PPARα-LBD”, “50 ul” for “50 μl”, “at 1300g.” for “at 1300 g.”

The target in a further data set is T3, PPARδ (Homo sapiens, UniProt Q03181).
T3 construct: PPARδ (aa 139 to 442); made in house; host or cells: E. coli BL21 (pLysS)
T3 sequence (Q03181 139-441 limits assumed): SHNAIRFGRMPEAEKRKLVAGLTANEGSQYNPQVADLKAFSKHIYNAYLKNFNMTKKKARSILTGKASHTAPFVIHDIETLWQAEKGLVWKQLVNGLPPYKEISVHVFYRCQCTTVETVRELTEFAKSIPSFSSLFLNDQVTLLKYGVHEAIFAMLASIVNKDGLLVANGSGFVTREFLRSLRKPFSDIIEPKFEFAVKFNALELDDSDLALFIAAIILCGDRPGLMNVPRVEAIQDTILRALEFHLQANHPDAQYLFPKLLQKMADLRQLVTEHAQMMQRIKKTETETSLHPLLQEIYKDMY
As to the kind of experiment: PPARδ receptor radioligand binding assay (SPA). The following applies: GST-PPARδ-LBD fusion protein on SPA beads.
From the text: as §1, §2, §3
PPARδ receptor binding was assayed in HNM10 (50 mM Hepes, pH 7.4, 10 mM NaCl, 5 mM MgCl2, 0.15 mg/ml fatty acid-free BSA and 15 mM DTT). For each 96 well reaction a 500 ng equivalent of GST-PPARδ-LBD fusion protein and radioligand, e.g. 20000 dpm {2-methyl-4-[4-methyl-2-(4-trifluoromethyl-phenyl)-thiazol-5-yl-ditritiomethylsulfanyl]-phenoxy}-acetic acid, was bound to 10 μg SPA beads (PharmaciaAmersham) in a final volume of 50 μl by shaking. The resulting slurry was incubated for 1 h at RT and centrifuged for 2 min at 1300 g. […] Radioligand was added and the reaction incubated at RT for 1 h and scintillation proximity counting performed in the presence of test compounds was determined. All binding assays were performed in 96 well plates and the amount of bound ligand was measured on a Packard TopCount using OptiPlates (Packard). […]

As for `Cc1cc(N(C)Cc2cnc(-c3ccc(C(F)(F)F)cc3)nc2C2CC2)ccc1OCC(=O)O` [Example 27, (4-{[4-Cyclopropyl-2-(4-trifluoromethyl-phenyl)-pyrimidin-5-ylmethyl]-methyl-amino}-2-methyl-phenoxy)-acetic acid], the IC50 at PPARα is 289 nM; at PPARγ, more than 10000 nM; on PPARδ, 31 nM.

In the case of `Cc1cc(OC(C)c2ccc(-c3ccc(C(F)(F)F)cc3)nc2C)ccc1SCC(=O)O` (racemic) [Example 20, [rac]-(2-Methyl-4-{1-[2-methyl-6-(4-trifluoromethyl-phenyl)-pyridin-3-yl]-ethoxy}-phenylsulfanyl)-acetic acid], the values for the IC50 at PPARα, at PPARγ and at PPARδ were 454 nM, more than 10000 nM and 2 nM, respectively.

`COCCCc1cc(N(C)Cc2ccc(-c3ccc(C(F)(F)F)cc3)nc2C)ccc1OCC(=O)O` [Example 1, (2-(3-Methoxy-propyl)-4-{methyl-[2-methyl-6-(4-trifluoromethyl-phenyl)-pyridin-3-ylmethyl]-amino}-phenoxy)-acetic acid]: the melting point is 72 to 73 °C.

`COCCCc1cc(N(C)Cc2ccc(-c3ccc(OC(F)(F)F)cc3)nc2)ccc1OCC(=O)O` [Example 14, (2-(3-Methoxy-propyl)-4-{methyl-[6-(4-trifluoromethoxy-phenyl)-pyridin-3-ylmethyl]-amino}-phenoxy)-acetic acid]: the melting point is 73 to 75 °C.

Take `Cc1cc(OCc2cnc(-c3ccc(C(F)(F)F)cc3)nc2C(F)(F)F)ccc1OC(C)(C)C(=O)O` [Example 107, 2-Methyl-2-{2-methyl-4-[4-trifluoromethyl-2-(4-trifluoromethyl-phenyl)-pyrimidin-5-ylmethoxy]-phenoxy}-propionic acid]: the melting point was 149 to 151 °C (dec.).

For the molecule `Cc1cc(OCc2ccc(-c3ccc(C(F)(F)F)cc3)nc2C2CC2)ccc1OC(C)(C)C(=O)O` [Example 40, 2-{4-[2-Cyclopropyl-6-(4-trifluoromethyl-phenyl)-pyridin-3-ylmethoxy]-2-methyl-phenoxy}-2-methyl-propionic acid], the melting point was 170 to 171 °C.

Molecule `Cc1cc(OCc2cnc(-c3ccc(C(F)(F)F)nc3)nc2C2CC2)ccc1OC(C)(C)C(=O)O` [Example 105, 2-{4-[4-Cyclopropyl-2-(6-trifluoromethyl-pyridin-3-yl)-pyrimidin-5-ylmethoxy]-2-methyl-phenoxy}-2-methyl-propionic acid] came in with a melting point of 185 to 185.5 °C.

As to `Cc1cc(N(C)Cc2ccc(-c3ccc(C(F)(F)F)cc3)nc2C)cc(C)c1OCC(=O)O` [Example 7, (2,6-Dimethyl-4-{methyl-[2-methyl-6-(4-trifluoromethyl-phenyl)-pyridin-3-ylmethyl]-amino}-phenoxy)-acetic acid], the melting point fell in the range of 137 to 138 °C.

With `COCCc1nc(-c2ccc(C(F)(F)F)cc2)ncc1COc1ccc(OC(C)(C)C(=O)O)c(C)c1` [Example 140, 2-{4-[4-(2-Methoxy-ethyl)-2-(4-trifluoromethyl-phenyl)-pyrimidin-5-ylmethoxy]-2-methyl-phenoxy}-2-methyl-propionic acid], the melting point was in the range of 119.5 to 120 °C.

In the case of `Cc1cc(N(C)Cc2ccc(-c3ccc(Cl)cc3)nc2)ccc1OCC(=O)O` [Example 12, (4-{[6-(4-Chloro-phenyl)-pyridin-3-ylmethyl]-methyl-amino}-2-methyl-phenoxy)-acetic acid], the melting point is 174 to 176 °C.

Regarding `Cc1cc(OCc2ccc(-c3ccc(OC(F)(F)F)cc3)nc2C)ccc1OC(C)(C)C(=O)O` [Example 39, 2-Methyl-2-{2-methyl-4-[2-methyl-6-(4-trifluoromethoxy-phenyl)-pyridin-3-ylmethoxy]-phenoxy}-propionic acid], the melting point was in the range of 149 to 151 °C.

In turn, `COCCCc1cc(N(C)Cc2ccc(-c3ccc(C(F)(F)F)cc3)nc2)ccc1OCC(=O)O` [Example 16, (2-(3-Methoxy-propyl)-4-{methyl-[6-(4-trifluoromethyl-phenyl)-pyridin-3-ylmethyl]-amino}-phenoxy)-acetic acid] showed a melting point of 72 to 76 °C.

`Cc1c(OCc2cnc(-c3ccc(C(F)(F)F)cc3)nc2C2CC2)ccc(OC(C)(C)C(=O)O)c1C` [Example 106, 2-{4-[4-Cyclopropyl-2-(4-trifluoromethyl-phenyl)-pyrimidin-5-ylmethoxy]-2,3-dimethyl-phenoxy}-2-methyl-propionic acid]: the melting point is 214 to 215 °C (dec.).

Take `CCOCCc1nc(-c2ccc(C(F)(F)F)nc2)ncc1COc1ccc(OC(C)(C)C(=O)O)c(C)c1` [Example 101, 2-{4-[4-(2-Ethoxy-ethyl)-2-(6-trifluoromethyl-pyridin-3-yl)-pyrimidin-5-ylmethoxy]-2-methyl-phenoxy}-2-methyl-propionic acid]: the melting point is 122 to 124 °C (dec.).

As for `Cc1cc(N(C)Cc2ccc(-c3ccc(OC(F)(F)F)cc3)nc2)ccc1OCC(=O)O` [Example 13, (2-Methyl-4-{methyl-[6-(4-trifluoromethoxy-phenyl)-pyridin-3-ylmethyl]-amino}-phenoxy)-acetic acid], the melting point was 137 to 138 °C.
